Experimental data published in patent US4593093A, “Acyl derivatives” (priority 1980, dated 1986).
Structures can show the parent of a compound that is named as a salt. Where two headings read alike, the source gives them in different places.

Legend:
[1] = system: Pseudomonas aeruginosa; test: Activity in vitro: minimum inhibitory concentration; assay type: cell-based
[2] = system: Streptococcus pneumoniae; test: as above; assay type: cell-based
[3] = system: Citrobacter freundii; test: as above; assay type: cell-based
[4] = system: Proteus vulgaris; test: as above; assay type: cell-based
[5] = system: Enterobacter aerogenes; test: as above; assay type: cell-based; settings: Klebsiella aerogenes
[6] = system: Staphylococcus epidermis; test: as above; assay type: cell-based
[7] = Toxicity, LD50; settings: in vivo
[8] = system: Serratia marcescens; test: Activity in vitro: minimum inhibitory concentration; assay type: cell-based
[9] = system: Proteus mirabilis; test: as above; assay type: cell-based
[10] = system: Streptococcus pyogenes; test: as above; assay type: cell-based
[11] = system: Escherichia coli; test: as above; assay type: cell-based
[12] = system: Proteus inconstans; test: as above; assay type: cell-based; settings: Providencia alcalifaciens
[13] = system: Streptococcus faecalis; test: as above; assay type: cell-based; settings: Enterococcus faecalis
[14] = system: Proteus morganii; test: as above; assay type: cell-based; settings: Morganella morganii
[15] = system: Staphylococcus aureus; test: as above; assay type: cell-based
[16] = system: Pseudomonas aeruginosa; test: Activity in vivo: survival of intraperitoneally infected mice; settings: sc, 96 h; mice infected i.p. with Pseudomonas aeruginosa; s.c. three times, 1 h, 3 h and 5 h after infection; survival on 4th day; read-out: CD50 (dosage at which 50% of the animals survive)
Description: (§1) Groups of 5 mice are infected intraperitoneally with an aqueous suspension of various pathogens. The test substance in physiological sodium chloride solution is administered subcutaneously twice, i.e. 1 hour and 3 hours after the infection. The number of surviving animals is determined on the 4th day. Various dosages are administered and that dosage at which 50% of the experimental animals survive (CD50, mg/kg) is determined by interpolation.
*Administered subcutaneously three times: 1 hour, 3 hours and 5 hours

[17] = system: Streptococcus viridans; test: Activity in vitro: minimum inhibitory concentration; assay type: cell-based
[18] = system: Enterobacter cloacae; test: as above; assay type: cell-based
[19] = system: Streptococcus pyogenes; test: Activity in vivo: survival of intraperitoneally infected mice; settings: sc, 96 h; mice infected i.p. with Streptococcus pyogenes; s.c. twice, 1 h and 3 h after infection; survival on 4th day; read-out: CD50 (dosage at which 50% of the animals survive)
Description: as §1

[20] = system: Enterobacter cloacae; test: as above; settings: sc, 96 h; mice infected i.p. with Enterobacter cloacae; s.c. twice, 1 h and 3 h after infection; survival on 4th day; read-out: CD50 (dosage at which 50% of the animals survive)
Description: as §1

[21] = system: Escherichia coli; test: as above; settings: sc, 96 h; mice infected i.p. with Escherichia coli; s.c. twice, 1 h and 3 h after infection; survival on 4th day; read-out: CD50 (dosage at which 50% of the animals survive)
Description: as §1

[22] = system: Serratia marcescens; test: as above; settings: sc, 96 h, mice infected i.p. with Serratia marcescens strain 1, s.c. twice, 1 h and 3 h after infection, survival on 4th day, read-out: CD50 (dosage at which 50% of the animals survive)
Description: as §1

[23] = system: Haemophilus influenzae; test: as above; settings: sc, 96 h; mice infected i.p. with Haemophilus influenzae; s.c. twice, 1 h and 3 h after infection; survival on 4th day; read-out: CD50 (dosage at which 50% of the animals survive)
Description: as §1

[24] = system: Klebsiella pseumoniae; test: Activity in vitro: minimum inhibitory concentration; assay type: cell-based
[25] = system: Proteus rettgeri; test: as above; assay type: cell-based; settings: Providencia rettgeri
[26] = Pseudomonas aeruginosa strain 1
[27] = Pseudomonas aeruginosa strain 2
[28] = Pseudomonas aeruginosa strain 3
[29] = Enterobacter aerogenes strain 1
[30] = Enterobacter aerogenes strain 2
[31] = Streptococcus pyogenes strain 1, read-out: Minimum inhibitory concentration
[32] = Streptococcus pyogenes strain 2, read-out: Minimum inhibitory concentration
[33] = Streptococcus faecalis strain 1
[34] = Streptococcus faecalis strain 2

SMILES: CO/N=C(\C(=O)N[C@@H]1C(=O)N2C(C(=O)[O-])=C(CSc3nnnn3C)CS[C@H]12)c1c[se]c(N)n1.[Na+] [Product A, (6R, 7R)-7-[2-(2-amino-4-selenazolyl)-2-[(Z)-methoxyimino]-acetamido]-3-[[(1-methyl-1H-tetrazol-5-yl)-thio]methyl]-8-oxo-5-thia-1-azabicyclo[4.2.0]oct-2-ene-2-carboxylic acid sodium salt]
- MIC [1, 26]: 25 µg/mL
- MIC [1, 27]: 25 µg/mL
- MIC [1, 28]: 6.3 µg/mL
- MIC [2]: 0.025 µg/mL
- MIC ([3]; Citrobacter freundii strain 1): 1.6 µg/mL
- MIC ([3]; Citrobacter freundii strain 2): 0.05 µg/mL
- MIC [4]: 0.78 µg/mL
- MIC [5, 29]: 0.1 µg/mL
- MIC [5, 30]: 0.1 µg/mL
- MIC [6]: 0.8 µg/mL
- LD50 ([7]; po): > 5000 mg/kg
- LD50 ([7]; sc): > 4000 mg/kg
- MIC ([8]; Serratia marcescens strain 1): 0.4 µg/mL
- MIC ([8]; Serratia marcescens strain 2): 0.8 µg/mL
- MIC ([8]; Serratia marcescens strain 3): 0.1 µg/mL
- MIC ([9]; Proteus mirabilis strain 1): 0.1 µg/mL
- MIC ([9]; Proteus mirabilis strain 2): 0.1 µg/mL
- MIC ([9]; Proteus mirabilis strain 3): 0.8 µg/mL
- MIC ([9]; Proteus mirabilis strain 4): 0.05 µg/mL
- MIC ([9]; Proteus mirabilis strain 5): 0.05 µg/mL
- MIC [10, 31]: 0.025 µg/mL
- MIC [10, 32]: ≤ 0.012 µg/mL
- MIC ([11]; Escherichia coli strain 1): 0.1 µg/mL
- MIC ([11]; Escherichia coli strain 2): 0.025 µg/mL
- MIC ([11]; Escherichia coli strain 3): 0.4 µg/mL
- MIC ([11]; Escherichia coli strain 4): 0.2 µg/mL
- MIC ([11]; Escherichia coli strain 5): 0.4 µg/mL
- MIC [12]: 0.025 µg/mL
- MIC [13, 33]: 100 µg/mL
- MIC [13, 34]: > 100 µg/mL
- MIC [14]: 0.1 µg/mL
- MIC ([15]; Staphylococcus aureus strain 1): 0.8 µg/mL
- MIC ([15]; Staphylococcus aureus strain 2): 1.6 µg/mL
- MIC ([15]; Staphylococcus aureus strain 3): 0.8 µg/mL
- MIC ([15]; Staphylococcus aureus strain 4): 0.8 µg/mL
- ED50 [16]: 39 mg/kg
- MIC [17]: 0.8 µg/mL
- MIC ([18]; Enterobacter cloacae strain 1): > 100 µg/mL
- MIC ([18]; Enterobacter cloacae strain 2): 0.8 µg/mL
- MIC ([18]; Enterobacter cloacae strain 3): 50 µg/mL
- ED50 [19]: 0.05 mg/kg
- ED50 [20]: 8.4 mg/kg
- ED50 [21]: 0.006 mg/kg
- ED50 [22]: 0.13 mg/kg
- ED50 [23]: 1.5 mg/kg
- MIC ([24]; Klebsiella pseumoniae strain 1): 0.2 µg/mL
- MIC ([24]; Klebsiella pseumoniae strain 2): 0.05 µg/mL
- MIC ([24]; Klebsiella pseumoniae strain 3): 0.1 µg/mL
- MIC [25]: 0.2 µg/mL

SMILES: CO/N=C(\C(=O)N[C@@H]1C(=O)N2C(C(=O)O)=C(CSc3nnc(C)s3)CS[C@H]12)c1c[se]c(N)n1 [Product B, (6R, 7R)-7-[2-)2-amino-4-selenazolyl)-2-[(Z)-methoxyimino]-acetamido]-3-[[(5-methyl-1,3,4-thiadiazol-2-yl)thio]methyl]-8-oxo-5-thia-1-azabicyclo[4.2.0]oct-2-ene-2-carboxylic acid sodium salt]
- MIC [1, 26]: 50 µg/mL
- MIC [1, 27]: 25 µg/mL
- MIC [1, 28]: 6.3 µg/mL
- MIC [2]: 0.025 µg/mL
- MIC ([3]; Citrobacter freundii strain 1): 1.6 µg/mL
- MIC ([3]; Citrobacter freundii strain 2): 0.2 µg/mL
- MIC [4]: 0.78 µg/mL
- MIC [5, 29]: 0.1 µg/mL
- MIC [5, 30]: 0.1 µg/mL
- MIC [6]: 0.8 µg/mL
- LD50 ([7]; po): > 5000 mg/kg
- LD50 ([7]; sc): > 4000 mg/kg
- MIC ([8]; Serratia marcescens strain 1): 0.8 µg/mL
- MIC ([8]; Serratia marcescens strain 2): 1.6 µg/mL
- MIC ([8]; Serratia marcescens strain 3): 0.2 µg/mL
- MIC ([9]; Proteus mirabilis strain 1): 0.19 µg/mL
- MIC ([9]; Proteus mirabilis strain 2): 0.19 µg/mL
- MIC ([9]; Proteus mirabilis strain 3): 0.2 µg/mL
- MIC ([9]; Proteus mirabilis strain 4): 0.4 µg/mL
- MIC ([9]; Proteus mirabilis strain 5): 0.4 µg/mL
- MIC [10, 31]: 0.025 µg/mL
- MIC [10, 32]: ≤ 0.012 µg/mL
- MIC ([11]; Escherichia coli strain 1): 0.2 µg/mL
- MIC ([11]; Escherichia coli strain 2): 0.006 µg/mL
- MIC ([11]; Escherichia coli strain 3): 0.8 µg/mL
- MIC ([11]; Escherichia coli strain 4): 0.2 µg/mL
- MIC ([11]; Escherichia coli strain 5): 0.4 µg/mL
- MIC [12]: 0.025 µg/mL
- MIC [13, 33]: 100 µg/mL
- MIC [13, 34]: 100 µg/mL
- MIC [14]: 0.05 µg/mL
- MIC ([15]; Staphylococcus aureus strain 1): 0.8 µg/mL
- MIC ([15]; Staphylococcus aureus strain 2): 1.6 µg/mL
- MIC ([15]; Staphylococcus aureus strain 3): 0.8 µg/mL
- MIC ([15]; Staphylococcus aureus strain 4): 1.6 µg/mL
- ED50 [16]: 134 mg/kg
- MIC [17]: 0.8 µg/mL
- MIC ([18]; Enterobacter cloacae strain 1): > 100 µg/mL
- MIC ([18]; Enterobacter cloacae strain 2): 1.6 µg/mL
- MIC ([18]; Enterobacter cloacae strain 3): 50 µg/mL
- ED50 [19]: 0.05 mg/kg
- ED50 [20]: > 12 mg/kg
- ED50 [21]: 0.006 mg/kg
- ED50 [22]: 0.52 mg/kg
- ED50 [23]: 0.27 mg/kg
- MIC ([24]; Klebsiella pseumoniae strain 1): 0.4 µg/mL
- MIC ([24]; Klebsiella pseumoniae strain 2): 0.1 µg/mL
- MIC ([24]; Klebsiella pseumoniae strain 3): 0.2 µg/mL
- MIC [25]: 0.2 µg/mL
